The supplement of paper PMC10331698
± gives the standard deviation of the averaged measurements.

What was measured:
Assay in all cases: level (log10 ratio to DMSO vehicle control); higher = higher biomarker level / cell amount than vehicle control
Details in all cases: in DMSO
[1] = compound: O=S(=O)(O)C(F)(F)C(F)(F)C(F)(F)C(F)(F)C(F)(F)C(F)(F)F [Perfluorohexanesulfonic acid]
Description: (§1)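 BioMAP Diversity Plus panel of 12 human primary cell co-culture systems (3C, 4H, LPS, SAg, BT, BF4T, BE3C, CASM3C, HDF3CGF, KF3CT, MyoF, Mphg). Compounds were added 1 h before stimulation and left for 24 h (MyoF 48 h; BT 72 h for soluble read-outs or 6 d for IgG). Biomarkers were read by ELISA, cytotoxicity by SRB, PBMC viability and proliferation by Alamar Blue. Each well value was divided by the mean of 8 DMSO control wells on the same plate and log10 transformed; duplicate blinded samples were tested at 4 concentrations.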

[2] = compound: FC(F)(F)C(F)(F)C(F)(F)C(F)(F)C(F)(F)C(F)(F)I [Perfluoro-1-iodohexane]
Description: as §1

[3] = compound: FC(F)(F)C(F)(F)C(F)(F)C(F)(F)C(F)(F)C(F)(F)C(F)(F)C(F)(F)CCS [2-(Perfluorooctyl)ethanthiol]
Description: as §1

[4] = compound: O=C(O)C(F)(F)C(F)(F)C(F)(F)C(F)(F)C(F)(F)C(F)(F)C(F)(F)C(F)(F)C(F)(F)F [Perfluorodecanoic acid]
Description: as §1

[5] = compound: C=CC(=O)OCC(F)(F)C(F)(F)C(F)(F)C(F)(F)C(F)(F)C(F)(F)C(F)(F)F [1H,1H-Perfluorooctyl acrylate]
Description: as §1

[6] = compound: O=C(O)C(F)(F)C(F)(F)OC(F)(F)F [Perfluoro-3-methoxypropanoic acid]
Description: as §1

[7] = compound: O=C(O)C(F)(F)C(F)(F)C(F)(F)OC(F)(C(F)(F)F)C(F)(F)F [Perfluoro-4-isopropoxybutanoic acid]
Description: as §1

| Test System | level (log10) ([1]; 6700 nM) | level (log10) ([1]; 20000 nM) | level (log10) ([1]; 60000 nM) | level (log10) ([2]; 6700 nM) | level (log10) ([2]; 20000 nM) | level (log10) ([2]; 60000 nM) | level (log10) ([3]; 6700 nM) | level (log10) ([3]; 20000 nM) | level (log10) ([4]; 6700 nM) | level (log10) ([4]; 20000 nM) | level (log10) ([5]; 6700 nM) | level (log10) ([5]; 20000 nM) | level (log10) ([5]; 60000 nM) | level (log10) ([6]; 6700 nM) | level (log10) ([6]; 20000 nM) | level (log10) ([6]; 60000 nM) | level (log10) ([7]; 6700 nM) | level (log10) ([7]; 20000 nM) | level (log10) ([7]; 60000 nM) |
| --- | --- | --- | --- | --- | --- | --- | --- | --- | --- | --- | --- | --- | --- | --- | --- | --- | --- | --- | --- |
| CASM3C:CD106/VCAM-1 | -0.0145 ± 0.023 | -0.0175 ± 0.016 | -0.047 ± 0.024 | 0.003 ± 0.017 | -0.003 ± 0.025 | -0.023 ± 0.041 | -0.0135 ± 0.005 | -0.014 ± 0.0099 | 0.0015 ± 0.0092 | -0.036 ± 0.0085 | 0.007 ± 0.016 | 0.014 ± 0.0014 | -0.0055 ± 0.0092 | -0.0155 ± 0.013 | -0.03 ± 0.0071 | 0.012 ± 0.02 | -0.003 ± 0.0071 | -0.016 ± 0.016 | -0.007 ± 0.021 |
| CASM3C:CD141/Thrombomodulin | 0.0005 ± 0.0064 | 0.0015 ± 0.005 | -0.0055 ± 0.022 | 0.0055 ± 0.015 | -0.006 ± 0.0028 | -0.004 ± 0.0028 | -0.034 ± 0.048 | -0.0065 ± 0.09 | -0.015 ± 0.031 | -0.0125 ± 0.029 | -0.002 ± 0.0028 | 0.0035 ± 0.011 | 0.002 ± 0.017 | -0.003 ± 0.0028 | -0.014 ± 0.0099 | 0.021 ± 0.04 | 0 ± 0.018 | -0.005 ± 0.02 | 0.0135 ± 0.029 |
| CASM3C:CD142/Tissue Factor | 0.0145 ± 0.047 | -0.0005 ± 0.023 | 0.005 ± 0.0014 | -0.009 ± 0.013 | -0.018 ± 0.0042 | -0.031 | -0.0015 ± 0.13 | -0.0415 ± 0.07 | 0.008 ± 0.0042 | -0.0055 ± 0.012 | 0.0095 ± 0.005 | -0.004 ± 0.0014 | -0.0005 ± 0.0092 | -0.022 ± 0.027 | -0.0145 ± 0.04 | -0.0025 ± 0.037 | -0.018 ± 0.033 | -0.011 ± 0.0042 | 0.0205 ± 0.025 |
| CASM3C:CXCL8/IL-8 | -0.006 ± 0.013 | -0.003 | 0.026 ± 0.014 | 0.0055 ± 0.0092 | -0.0005 ± 0.0078 | 0.011 ± 0.021 | 0.021 ± 0.047 | 0.034 ± 0.037 | -0.0035 ± 0.0064 | -0.006 ± 0.0028 | 0.004 ± 0.0099 | -0.006 ± 0.011 | 0.016 ± 0.0028 | 0.0045 ± 0.03 | 0.006 ± 0.03 | 0.033 ± 0.0028 | 0.0115 ± 0.019 | 0.0295 ± 0.016 | 0.076 ± 0.017 |
| CASM3C:CXCL9/MIG | 0.003 ± 0.0099 | 0.0045 ± 0.0064 | 0.012 ± 0.0014 | -0.0015 ± 0.0064 | 0.002 ± 0.0028 | -0.0025 ± 0.036 | -0.0025 ± 0.023 | 0.0395 ± 0.0064 | -0.012 ± 0.0028 | -0.0055 ± 0.0064 | 0.001 ± 0.0028 | -0.0015 ± 0.011 | 0.0005 ± 0.0035 | -0.0175 ± 0.0078 | 0.0065 ± 0.005 | 0.027 ± 0.024 | 0.01 ± 0.0014 | 0.0125 ± 0.0021 | 0.044 ± 0.048 |
| CASM3C:HLA-DR | 0.0105 ± 0.015 | -0.001 ± 0.013 | -0.008 ± 0.028 | 0.0075 ± 0.0092 | 0.004 ± 0.0057 | 0.0095 ± 0.022 | -0.0165 ± 0.012 | 0.003 ± 0.0028 | 0 | 0.006 ± 0.014 | 0.0075 ± 0.00071 | 0.002 ± 0.018 | 0.0045 ± 0.013 | -0.035 ± 0.033 | -0.0245 ± 0.0092 | 0.004 ± 0.041 | -0.0205 ± 0.029 | -0.0315 ± 0.023 | -0.013 ± 0.04 |
| CASM3C:IL-6 | -0.027 ± 0.017 | -0.0225 ± 0.0021 | -0.0025 ± 0.036 | -0.0035 ± 0.012 | -0.0055 ± 0.0021 | 0.018 ± 0.0099 | 0.0235 ± 0.09 | 0.0465 ± 0.035 | -0.035 ± 0.037 | -0.0375 ± 0.039 | -0.0135 ± 0.029 | -0.027 ± 0.048 | -0.0125 ± 0.03 | -0.001 ± 0.038 | 0 ± 0.044 | 0.0245 ± 0.0078 | -0.0055 ± 0.019 | -0.002 ± 0.025 | 0.0285 ± 0.084 |
